# Results as given in PMC9501899 (Journal of the American Chemical Society, 2022).
# System: LRRK2
# Test: Western blot screening of PROTACs in WT and G2019S LRRK2 MEFs
# Format: cell-based, mouse
# Protocol: These PROTACs were then biologically evaluated in mouse embryonic fibroblasts (MEFs) by Western blotting. Briefly, MEFs were treated with compounds at 33 nM and 1 μM for 4 h (Figure 2) and 24 h (Figure S2) separately, and the intracellular level of LRRK2, phosphorylated LRRK2 at Ser935, and phosphorylated Rab10 (pRab10) at Thr73 was determined. Rab10[5],[49] is one of the bona fide substrates of LRRK2, whose phosphorylation status is directly affected by the LRRK2 kinase activity and protein level. Phosphorylation of LRRK2 at Ser935 is a well-studied biomarker site used to assess the efficacy of type 1 LRRK2 inhibitors.[30]
# Primary MEFs were generated as described in a previous study.[80] Briefly, the uterine horn was collected from adult female mice at day E12.5 and transferred to a 10 cm tissue culture dish containing cold PBS. Two forceps were used to tear the yolk sacs to isolate each embryo. Forceps were cleaned thoroughly with 70% ethanol between each embryo isolation. The embryos were culled, and a tissue piece was collected in a polymerase chain reaction (PCR) tube for genotyping. The red tissue of the embryo was removed, and the remainder was minced with a scalpel blade and incubated with a 7.5 mL trypsin–ethylenediaminetetraacetic acid (EDTA) solution for 10 min in a 37 °C, 5% CO2 tissue culture incubator. The dish was removed from the incubator and checked under a light microscope for single cells. Complete media (7.5 mL) was added to the trypsinized cells, and the cell suspension was transferred to a 15 mL Falcon tube and centrifuged at 1200 rpm for 5 min at room temperature. The trypsin was aspirated, the cell pellet was resuspended in a 5 mL fresh complete media, and the cell suspension was plated in a 60 mm tissue culture dish and incubated in a 37 °C, 5% CO2 tissue culture incubator. The MEFs at this stage were considered as passage 0 and were passaged and expanded for experimental use once the genotype was confirmed by allelic sequencing and immunoblotting. MEFs were cultured in Dulbecco’s modified Eagle’s medium (DMEM) containing 10% (v/v) fetal bovine serum (FBS), 2 mM L-glutamine, 100 U/mL penicillin, and 100 μg/mL streptomycin supplemented with 1× nonessential amino acids and 1 mM sodium pyruvate.
# Culturing and passaging of adherent cell lines were carried out using an aseptic technique in CL1 or CL2 (for PBMC isolation) biological safety cabinets. All cells were incubated in a 37 °C incubator with 5% CO2. Cell lines were regularly tested for mycoplasma contamination. For Western blot assay, the cells were seeded in six-well plates.
smiles,measurement,setting,value
CNc1nc(Nc2ccc(C(=O)N3CCN(CCOCCOCCSC(C)(C)[C@H](NC(=O)C4(F)CC4)C(=O)N4C[C@H](O)C[C@H]4C(=O)NCc4ccc(-c5scnc5C)cc4)CC3)cc2OC)ncc1Cl [SD75],degradation of LRRK2,0.033 µM,< 40%
same,degradation of LRRK2 (in words),"33 nM/4 h, WT and G2019S LRRK2 MEFs",little to no degradation
